Experiment [1] in a line: Binding affinity to 5'-ATCGGAT-3' DNA (unknown origin) assessed as dissociation constant incubated for 180 secs by SPR analysis.
A short description of experiment [2]: Binding preference index, ratio of Kd for 5'-ATmCGGAT-3' DNA (unknown origin) to Kd for 5'-ATCGGAT-3' DNA (unknown origin).
The nature of experiment [3]: Binding affinity to 5'-ATmCGGAT-3' DNA (unknown origin) assessed as association constant incubated for 180 secs by SPR analysis. In general terms: SPR reads the build-up and loss of mass on a sensor chip optically.
A short description of experiment [4]: Binding affinity to 5'-ATmCGGAT-3' DNA (unknown origin) assessed as dissociation constant incubated for 180 secs by SPR analysis.
A short description of experiment [5]: Orientation preference, ratio of change in melting temperature of forward binding site of 5'-ATmCGGAT-3' DNA (unknown origin) to sum of change in melting temperature of forward binding site and change in melting temperature of reverse binding site for 5'-ATmCGGAT-3' DNA (unknown origin).
Experiment [6] is described as follows: Binding affinity to 5'-ATGGmCAT-3' DNA (unknown origin) in reverse orientation assessed as change in melting temperature at 5 uM by UV-vis spectrophotometry.
Experiment [7] can be described thus: Binding affinity to 5'-ATCGGAT-3' DNA (unknown origin) assessed as dissociation rate constant incubated for 180 secs by SPR analysis.
A short description of experiment [8]: Binding affinity to 5'-ATmCGGAT-3' DNA (unknown origin) in reverse orientation assessed as change in melting temperature at 5 uM by UV-vis spectrophotometry.
A short description of experiment [9]: Binding affinity to 5'-ATmCGGAT-3' DNA (unknown origin) assessed as dissociation rate constant incubated for 180 secs by SPR analysis.
A short description of experiment [10]: Binding affinity to 5'-ATCGGAT-3' DNA (unknown origin) assessed as association constant incubated for 180 secs by SPR analysis.
Experiment [11] in a line: Binding affinity to mCGG containing DNA assessed as inhibition of mouse TET1 catalytic domain binding to methylated 18 bp DNAs assessed as reduction in TET1-methylated DNA complex formation incubated for 30 mins by electrophoretic mobility shift assay. On the technique in general: A gel shift assay detects complexes by their altered migration in electrophoresis.
A short description of experiment [12]: Orientation preference, ratio of change in melting temperature of forward binding site of 5'-ATGGmCAT-3' DNA (unknown origin) to sum of change in melting temperature of forward binding site and change in melting temperature of reverse binding site for 5'-ATGGmCAT-3' DNA (unknown origin).
The nature of experiment [13]: Binding affinity to 5'-ATGGmCAT-3' DNA (unknown origin) in forward orientation assessed as change in melting temperature at 5 uM by UV-vis spectrophotometry.
Experiment [14] can be described thus: Binding affinity to 5'-ATmCGGAT-3' DNA (unknown origin) in forward orientation assessed as change in melting temperature at 5 uM by UV-vis spectrophotometry.

On to `CC(=O)Nc1cc(C(=O)NCCC(=O)Nc2cn(C)c(C(=O)Nc3cc(C(=O)NCCCC(=O)Nc4cc(C(=O)NCCC(=O)Nc5cn(C)c(C(=O)Nc6cn(C)c(C(=O)NCCC(=O)NCCCN(C)C)n6)n5)n(C)c4)n(C)c3)n2)n(C)c1`, for which the Kd (commonly the constant that tells how readily two partners part at equilibrium) is 9.8 nM in experiment [1] and 8.9 nM in [4]. In addition, the results for the Ratio in experiment [2] and in experiment [5] were 0.9 and 0.42, respectively. Moreover, the Ka was found to be 7.4 ×10⁶ /M/s in [3] and 9 ×10⁶ /M/s in experiment [10]. The ΔTm (usually the change in melting temperature against a reference sample) was found to be 16.2 °C in [6] and 11.8 °C in experiment [8]. Moreover, the entries for the “Dissociation rate constant (koff)” value in experiment [7] and in experiment [9] were 8.9 ×10⁻² /s and 6.6 ×10⁻² /s, respectively.
In the case of `CC(=O)Nc1cc(C(=O)NCCC(=O)Nc2cn(C)c(C(=O)Nc3cc(C(=O)NCC[C@@H](N)C(=O)Nc4cc(C(=O)NCCC(=O)Nc5cn(C)c(C(=O)Nc6cn(C)c(C(=O)NCCC(=O)NCCCN(C)C)n6)n5)n(C)c4)n(C)c3)n2)n(C)c1`, the Kd in experiment [1] and in [4] was 1.7 nM throughout. For the same molecule, the values for the Ratio in experiment [2] and in experiment [5] were 1 and 0.47, respectively. The Ka in experiment [3] was found to be 3.2 ×10⁶ /M/s; in experiment [10] it was 4.2 ×10⁶ /M/s. The ΔTm in experiment [6] stood at 17.9 °C; in experiment [8], 16 °C. The results for the “Dissociation rate constant (koff)” value in [7] and in experiment [9] were 7.2 ×10⁻³ /s and 5.3 ×10⁻³ /s, respectively. In addition, the IC50 (usually the concentration that inhibits the measured activity by half) in experiment [11] (read-out: IC50) amounted to 170 nM.
Take `CC(=O)Nc1cc(C(=O)Nc2cc(C(=O)Nc3cn(C)c(C(=O)Nc4cc(C(=O)NCCCC(=O)Nc5cc(C(=O)NCCC(=O)Nc6cn(C)c(C(=O)Nc7cn(C)c(C(=O)NCCC(=O)NCCCN(C)C)n7)n6)n(C)c5)n(C)c4)n3)n(C)c2)n(C)c1`: the Kd in [1] came to 21 nM; in experiment [4] it was 46 nM. For the same molecule, the Ratio stood at 2.2 in [2] and 0.29 in [5]. In addition, the Ka in experiment [3] was found to be 5.1 ×10⁵ /M/s; in experiment [10], 5.2 ×10⁵ /M/s. For the same molecule, the ΔTm stood at 14.8 °C in experiment [6] and 5.9 °C in experiment [8]. The “Dissociation rate constant (koff)” value in [7] turned out to be 1.1 ×10⁻² /s; in experiment [9] it was 2.3 ×10⁻² /s.
As for `CC(=O)Nc1cc(C(=O)Nc2cn(C)c(C(=O)Nc3cc(C(=O)Nc4cc(C(=O)NCCCC(=O)Nc5cn(C)c(C(=O)Nc6cn(C)c(C(=O)NCCC(=O)Nc7cc(C(=O)NCCC(=O)NCCCN(C)C)n(C)c7)n6)n5)n(C)c4)n(C)c3)n2)n(C)c1`, the Kd in experiment [1] is 150 nM; in [4], 130 nM. For the same molecule, the Ratio came to 0.9 in experiment [2] and 0.59 in [12]. Further, the results for the Ka in [3] and in experiment [10] were 1.2 ×10⁶ /M/s and 9.7 ×10⁵ /M/s, respectively. Moreover, the “Dissociation rate constant (koff)” value in [7] is given as 1.5 ×10⁻¹ /s; in experiment [9], 1.6 ×10⁻¹ /s. The values for the ΔTm in experiment [13] and in experiment [14] were 10.9 °C and 7.6 °C, respectively.
For the molecule `CC(=O)Nc1cc(C(=O)Nc2cn(C)c(C(=O)Nc3cc(C(=O)Nc4cc(C(=O)NCCCC(=O)Nc5cn(C)c(C(=O)Nc6cn(C)c(C(=O)Nc7cc(C(=O)Nc8cc(C(=O)NCCC(=O)NCCCN(C)C)n(C)c8)n(C)c7)n6)n5)n(C)c4)n(C)c3)n2)n(C)c1`, the Kd in [1] was determined as 48 nM; in experiment [4], 61 nM. Also, the Ratio was found to be 1.3 in experiment [2] and 0.94 in experiment [12]. In addition, the figures for the Ka in [3] and in experiment [10] were 4.3 ×10³ /M/s and 1.2 ×10⁴ /M/s, respectively. Also, the figures for the “Dissociation rate constant (koff)” value in experiment [7] and in experiment [9] were 5.9 ×10⁻⁴ /s and 2.6 ×10⁻⁴ /s, respectively. Further, the IC50 result in experiment [11] is given as “Not Active”. Moreover, the ΔTm in experiment [13] was 21.5 °C; in experiment [14] it was 1.4 °C.
`CC(=O)Nc1cc(C(=O)Nc2cn(C)c(C(=O)NCCC(=O)Nc3cc(C(=O)NCC[C@H](N)C(=O)Nc4cn(C)c(C(=O)Nc5cn(C)c(C(=O)NCCC(=O)Nc6cc(C(=O)NCCC(=O)NCCCN(C)C)n(C)c6)n5)n4)n(C)c3)n2)n(C)c1`: the Kd in [1] amounted to 3.6 nM; in experiment [4], 2.3 nM. Also, the figures for the Ratio in experiment [2] and in experiment [5] were 1.1 and 0.39, respectively. The Ka worked out at 2.5 ×10⁶ /M/s in experiment [3] and 2.4 ×10⁶ /M/s in experiment [10]. For the same molecule, the ΔTm in [6] is 13.3 °C; in [8], 20.8 °C. Moreover, the “Dissociation rate constant (koff)” value in experiment [7] is on record as 8.6 ×10⁻³ /s; in experiment [9], 5.8 ×10⁻³ /s. In addition, the IC50 in [11] (read-out: IC50) is 120 nM.
Consider `CC(=O)Nc1cc(C(=O)Nc2cc(C(=O)Nc3cn(C)c(C(=O)Nc4cc(C(=O)NCCCC(=O)Nc5cc(C(=O)Nc6cc(C(=O)Nc7cn(C)c(C(=O)Nc8cn(C)c(C(=O)NCCC(=O)NCCCN(C)C)n8)n7)n(C)c6)n(C)c5)n(C)c4)n3)n(C)c2)n(C)c1`, for which the Ratio in experiment [5] was found to be 0.19. For the same molecule, the ΔTm in experiment [6] was found to be 6.7 °C; in experiment [8], 1.6 °C. In experiment [11] (read-out: IC50), the IC50 was 2560 nM.
As to `CC(=O)Nc1cc(C(=O)NCCC(=O)Nc2cn(C)c(C(=O)Nc3cc(C(=O)NCCCC(=O)Nc4cc(C(=O)Nc5cc(C(=O)Nc6cn(C)c(C(=O)Nc7cn(C)c(C(=O)NCCC(=O)NCCCN(C)C)n7)n6)n(C)c5)n(C)c4)n(C)c3)n2)n(C)c1`, the dissociation constant Kd in [1] was determined as 530 nM; in [4], 480 nM. In addition, the Ratio in experiment [2] came to 0.9; in [5], 0.2. Moreover, the values for the Ka in experiment [3] and in [10] were 3.1 ×10⁴ /M/s and 3.6 ×10⁴ /M/s, respectively. The ΔTm in [6] is 13.1 °C; in [8], 3.3 °C. The “Dissociation rate constant (koff)” value in [7] amounted to 1.9 ×10⁻² /s; in [9], 1.5 ×10⁻² /s.
Take `CC(=O)Nc1cc(C(=O)Nc2cn(C)c(C(=O)NCCC(=O)Nc3cc(C(=O)NCCCC(=O)Nc4cn(C)c(C(=O)Nc5cn(C)c(C(=O)Nc6cc(C(=O)Nc7cc(C(=O)NCCC(=O)NCCCN(C)C)n(C)c7)n(C)c6)n5)n4)n(C)c3)n2)n(C)c1`: the values for the Kd in [1] and in experiment [4] were 150 nM and 610 nM, respectively. In addition, the Ratio in experiment [2] was 4.1; in experiment [12], 0.54. In addition, the Ka in experiment [3] worked out at 3.2 ×10⁵ /M/s; in [10] it was 8.2 ×10⁵ /M/s. The results for the “Dissociation rate constant (koff)” value in experiment [7] and in experiment [9] were 1.2 ×10⁻¹ /s and 2 ×10⁻¹ /s, respectively. Further, the ΔTm in [13] stood at 12.5 °C; in experiment [14] it was 10.8 °C.
Consider `CC(=O)Nc1cc(C(=O)Nc2cn(C)c(C(=O)NCCC(=O)Nc3cc(C(=O)NCCCC(=O)Nc4cn(C)c(C(=O)Nc5cn(C)c(C(=O)NCCC(=O)Nc6cc(C(=O)NCCC(=O)NCCCN(C)C)n(C)c6)n5)n4)n(C)c3)n2)n(C)c1`, for which the Kd in experiment [1] is 1.7 nM; in [4], 2.8 nM. For the same molecule, the values for the Ratio in experiment [2] and in experiment [5] were 1.6 and 0.32, respectively. The Ka in experiment [3] is 1.1 ×10⁶ /M/s; in experiment [10], 1.4 ×10⁶ /M/s. Besides, the ΔTm in [6] stood at 8.6 °C; in experiment [8], 18.1 °C. Also, the “Dissociation rate constant (koff)” value is listed as 2.4 ×10⁻³ /s in experiment [7] and 3.2 ×10⁻³ /s in [9].
